Literature values, collected in patent US20100189788A1 (Teva Pharmaceutical Industries, Ltd., priority 2009, published 2010).

Conditions: such as hexane toluene and ethylacetate; in words

Structure (SMILES): C#CCN[C@@H]1CCc2ccccc21 [rasagiline, R(+)-N-propargyl-1-aminoindan]
- solubility in non-polar organic solvents: very soluble
